Patent US20100152129A1 (priority 2008, published 2010)
Where two headings read alike, the source gives them in different places.

Columns and labels:
Panc-1 cells = assay: Protein expression using high content cell imaging system, and efficacy score; assay type: cell-based; settings: for Efficacy score: cumulative over proteins of Table 7; as to BCL2 protein expression: test concentration or dose not given here; as to CCND1 protein expression: test concentration or dose not given here; as to CDC25B protein expression: test concentration or dose not given here; as to CDKN2A protein expression: test concentration or dose not given here; as to COX15 protein expression: test concentration or dose not given here; as to GADD45-α protein expression: test concentration or dose not given here; as to GAPDH protein expression: test concentration or dose not given here; as to ID1 protein expression: test concentration or dose not given here; as to MMP-1 protein expression: test concentration or dose not given here; as to P27 protein expression: test concentration or dose not given here; as to PTN protein expression: test concentration or dose not given here
Panc1 cells = settings: human
[1] = 6 hours post treatment, control 3
[2] = 36 hours post treatment, control 98

CN1CC[C@H](c2c(O)cc(O)c3c(=O)cc(-c4ccccc4Cl)oc23)[C@H](O)C1 [Flavopiridol]
PTN protein expression (Panc-1 cells; 6 hours post treatment, control 1): 1 fluorescence units
GADD45-α protein expression (Panc-1 cells; [1]): 1 fluorescence units
ID1 protein expression (Panc-1 cells; [1]): 2 fluorescence units
P27 protein expression (Panc-1 cells; 6 hours post treatment, control 6): 9 fluorescence units
CDC25B protein expression (Panc-1 cells; 6 hours post treatment, control 7): 1 fluorescence units
CDKN2A protein expression (Panc-1 cells; 6 hours post treatment, control 8): 67 fluorescence units
CCND1 protein expression (Panc-1 cells; 6 hours post treatment, control 74): 78 fluorescence units
GAPDH protein expression (Panc-1 cells; 6 hours post treatment, control 80): 80 fluorescence units
CASP3 protein expression (Panc-1 cells; 6 hours post treatment, control 147): 111 fluorescence units
MMP-1 protein expression (Panc-1 cells; 6 hours post treatment, control 501): 501 fluorescence units
COX15 protein expression (Panc-1 cells; 6 hours post treatment, control 627): 689 fluorescence units
COX2 protein expression (Panc-1 cells; 6 hours post treatment, control 635): 351 fluorescence units
BAX protein expression (Panc-1 cells; 6 hours post treatment, control 819): 481 fluorescence units
VEGF protein expression (Panc-1 cells; 6 hours post treatment, control 829): 501 fluorescence units
BCL2 protein expression (Panc-1 cells; 6 hours post treatment, control 830): 410 fluorescence units
pRB protein expression (Panc-1 cells; 6 hours post treatment, control 1240): 1523 fluorescence units
Efficacy score (Panc-1 cells; 6 hours): 1.6
GADD45-α protein expression (Panc-1 cells; 16 hours post treatment, control 13): 15 fluorescence units
CDC25B protein expression (Panc-1 cells; 16 hours post treatment, control 54): 10 fluorescence units
CDKN2A protein expression (Panc-1 cells; 16 hours post treatment, control 64): 14 fluorescence units
P27 protein expression (Panc-1 cells; 16 hours post treatment, control 67): 22 fluorescence units
PTN protein expression (Panc-1 cells; 16 hours post treatment, control 76): 17 fluorescence units
ID1 protein expression (Panc-1 cells; 16 hours post treatment, control 77): 19 fluorescence units
CCND1 protein expression (Panc-1 cells; 16 hours post treatment, control 90): 52 fluorescence units
GAPDH protein expression (Panc-1 cells; 16 hours post treatment, control 100): 100 fluorescence units
CASP3 protein expression (Panc-1 cells; 16 hours post treatment, control 202): 536 fluorescence units
VEGF protein expression (Panc-1 cells; 16 hours post treatment, control 579): 129 fluorescence units
BCL2 protein expression (Panc-1 cells; 16 hours post treatment, control 644): 401 fluorescence units
BAX protein expression (Panc-1 cells; 16 hours post treatment, control 711): 252 fluorescence units
COX15 protein expression (Panc-1 cells; 16 hours post treatment, control 718): 459 fluorescence units
MMP-1 protein expression (Panc-1 cells; 16 hours post treatment, control 929): 129 fluorescence units
COX2 protein expression (Panc-1 cells; 16 hours post treatment, control 1109): 466 fluorescence units
pRB protein expression (Panc-1 cells; 16 hours post treatment, control 2583): 1300 fluorescence units
Efficacy score (Panc-1 cells; 16 hours): 9.4
GADD45-α protein expression (Panc-1 cells; 36 hours post treatment, control 19): 5 fluorescence units
COX2 protein expression (Panc-1 cells; 36 hours post treatment, control 86): 2 fluorescence units
P27 protein expression (Panc-1 cells; 36 hours post treatment, control 96): 2 fluorescence units
CCND1 protein expression (Panc-1 cells; [2]): 27 fluorescence units
CDC25B protein expression (Panc-1 cells; [2]): 21 fluorescence units
GAPDH protein expression (Panc-1 cells; [2]): 2 fluorescence units
ID1 protein expression (Panc-1 cells; [2]): 3 fluorescence units
PTN protein expression (Panc-1 cells; 36 hours post treatment, control 100): 100 fluorescence units
CASP3 protein expression (Panc-1 cells; 36 hours post treatment, control 265): 599 fluorescence units
BAX protein expression (Panc-1 cells; 36 hours post treatment, control 715): 1049 fluorescence units
COX15 protein expression (Panc-1 cells; 36 hours post treatment, control 722): 1256 fluorescence units
VEGF protein expression (Panc-1 cells; 36 hours post treatment, control 1093): 316 fluorescence units
MMP-1 protein expression (Panc-1 cells; 36 hours post treatment, control 1316): 316 fluorescence units
BCL2 protein expression (Panc-1 cells; 36 hours post treatment, control 1410): 367 fluorescence units
CDKN2A protein expression (Panc-1 cells; 36 hours post treatment, control 1441): 798 fluorescence units
pRB protein expression (Panc-1 cells; 36 hours post treatment, control 2840): 1557 fluorescence units
Efficacy score (Panc-1 cells; 36 hours): 9.3
% Cytotoxicity in Panc1 cells (Panc1 cells; 16 h): 21.25%
% Cytotoxicity in Panc1 cells (Panc1 cells; 36 h): 29.47%
